Measured values as given in patent US20230094952A1, “Method for Culturing Hematopoietic Stem Cells” (Sumitomo Pharma Co., Ltd., priority 2019, published 2023).

Assays:
[1] = test system: human hematopoietic stem cells (CD34-positive cells); experiment: Confirmation test with human cells: 1-week culture of cord blood Lineage-negative CD34-positive cells, flow cytometry; format: cell-based; details: 180 cells before culture, no UM171
Text: Collection of Human Cord Blood-Derived Mononuclear Cells Human cord blood-derived mononuclear cells were subjected to removal of erythrocytes and concentration treatment by using EasySep RBC Depletion Reagent (manufactured by […] Technologies Inc.) to obtain a cell population including hematopoietic stem cells.
First, a CD34-positive cell fraction was partially purified from the thus-obtained cell population including hematopoietic stem cells by using an EASYSep Human Cord Blood CD34 Positive Selection Kit II (manufactured by […] Technologies Inc.). The concentrated CD34-positive cells in a cell population enriched with hematopoietic stem cells and progenitor cells were stained with antibodies for the following cell surface markers.
Staining with the antibodies was performed at 4° C., and the cells were incubated for 30 minutes. For staining with the CD34 antibody, the cells were incubated for 90 minutes. Dead cell staining was performed with SYTOX Blue Dead Cell Stain (manufactured by Life Technologies) in accordance with a method recommended by the manufacturer.
Flow cytometry analysis and cell classification (cell sorting) were performed with a FACS Aria III cell sorter (manufactured by BD Biosciences), wherein fractions being Lineage-negative and CD34-positive were regarded as hematopoietic stem cells, and analysis was performed with the software FlowJo (manufactured by Tree Star, Inc.).
The cells after classification were seeded in a 96-well plate. […]
Each of artemether and the compounds of Example 1-23, Example 1-16, and Example 1-7 was prepared with the cell culture medium at nine final concentrations (0.001 μM, 0.003 μM, 0.01 μM, 0.03 μM, 0.1 μM, 0.3 μM, 1 μM, 3 μM, 10 μM), and added to the above human cells seeded after classification to a final volume of 200 μL/well to act thereon. UM171 (35 nM) was added to some of them to examine the presence or absence of synergistic effect. Thereafter, the cells were cultured in a CO2 incubator under conditions of 37° C. and 5% CO2 for 1 week. Viable cell counts and CD34-positive cell counts were analyzed.
After culture, the cells were stained with the antibodies for the surface markers CD34, CD11b, CD14, CD19, CD20, CD235ab, CD3, CD4, CD56, and CD8a, and the visible cell count and the ratio and post-growth cell count of a CD34 fraction (CD34^+, Lin^−) were measured by using a FACS Aria III cell sorter, and analyzed by using FlowJo (BD Biosciences). The CD34 fraction is a fraction including hematopoietic stem cells and multipotent progenitor cells as main components.

[2] = test system: human hematopoietic stem cells (CD34-positive cells); experiment: Functional test with human cells: colony assay (CFU-GEMM) after culture; format: cell-based; details: 1 week culture then 2 weeks MethoCult H4435, no UM171
Experimental: Each of artemether and the compounds of Example 1-23, Example 1-16, and Example 1-7 was prepared with the cell culture medium at nine final concentrations (0.001 μM, 0.003 μM, 0.01 μM, 0.03 μM, 0.1 μM, 0.3 μM, 1 μM, 3 μM, 10 μM), and added to the above human cells seeded after classification to a final volume of 200 μL/well to act thereon. UM171 (35 nM) was added to some of them to examine the presence or absence of synergistic effect. Thereafter, the cells were cultured in a CO2 incubator under conditions of 37° C. and 5% CO2 for 1 week, collected, and then seeded in a 96-well plate to place one CD34-positive cell in each well by using a FACS Aria III cell sorter, and cultured with a MethoCult H4435 ([…] Technologies Inc.) for 2 weeks. After culture, each well was photographed with an optical microscope (manufactured by KEYENCE CORPORATION), and the colony count was determined by visual observation and the form of each colony was determined by visual observation. Colony Formation Unit-Granulocytes, Erythroids, Macrophages, Megakaryocytes (CFU-GEMM), which are derived from myeloid progenitor cells, the erythroid burst colony-forming cells Burst Forming Unit-Erythroids (BFU-E), the granulocyte/macrophage colony-forming cells Colony Formation Unit-Granulocytes, Macrophages (CFU-GM) were determined on the basis of the forms of colonies, and the numbers were counted.

## COCCO[C@H]1O[C@@H]2O[C@@]3(C)CC[C@H]4[C@H](C)CC[C@@H]([C@H]1C)[C@@]24OO3 [Example 1-23, (3R,5aS,6R,8aS,9R,10S,12R,12aR)-10-(2-methoxyethoxy)-3,6,9-trimethyldecahydro-12H-3,12-epoxypyrano[4,3-j][1,2]benzodioxepine]
[1]; compound 0.001 μM
  CD34-positive cell count: 156 cell
  Viable cell count: 1581 cell
[1]; compound 0.003 μM
  CD34-positive cell count: 65 cell
  Viable cell count: 797 cell
[1]; compound 0.01 μM
  CD34-positive cell count: 72 cell
  Viable cell count: 1152 cell
[1]; compound 0.03 μM
  CD34-positive cell count: 63 cell
  Viable cell count: 901 cell
[1]; compound 0.1 μM
  CD34-positive cell count: 28 cell
  Viable cell count: 537 cell
[1]; compound 0.3 μM
  CD34-positive cell count: 19 cell
  Viable cell count: 462 cell
[1]; compound 1 μM
  CD34-positive cell count: 16 cell
  Viable cell count: 480 cell
[1]; compound 3 μM
  CD34-positive cell count: 15 cell
  Viable cell count: 269 cell
[1]; compound 10 μM
  CD34-positive cell count: 0 cell
  Viable cell count: 333 cell
[2]; compound 0.001 μM
  Colony count (colony) after culture (CFU-GEMM): 171.3 colony
[2]; compound 0.003 μM
  Colony count (colony) after culture (CFU-GEMM): 39.9 colony
[2]; compound 0.01 μM
  Colony count (colony) after culture (CFU-GEMM): 76.8 colony
[2]; compound 0.03 μM
  Colony count (colony) after culture (CFU-GEMM): 22.5 colony
[2]; compound 0.1 μM
  Colony count (colony) after culture (CFU-GEMM): 13.4 colony
[2]; compound 0.3 μM
  Colony count (colony) after culture (CFU-GEMM): 3.9 colony
[2]; compound 1 μM
  Colony count (colony) after culture (CFU-GEMM): 12.0 colony
[2]; compound 3 μM
  Colony count (colony) after culture (CFU-GEMM): 4.5 colony
[2]; compound 10 μM
  Colony count (colony) after culture (CFU-GEMM): 0.0 colony
